# Laboratory results as given in patent publication US20220257491A1, “Prebiotic Oral Care Compositions and Methods” (Colgate-Palmolive Company, priority 2021, published 2022).
# Marks after values point to notes of the source that are not given here.
# What was measured:
# Assay type in all cases: cell-based
# F. nucleatum = test: Multi-species biofilm composition: absolute abundance of F. nucleatum; settings: for Absolute abundance Fn (F. nucleatum): mean±SD n=3
# Experimental: (§1) Biofilms are grown vertically on Calcium Deficient Hydroxyapatite (CAD-HA) disks (Hitemco Medical, Old Bethpage, USA) using the Amsterdam Active Adhesion model. Biofilms are allowed to establish during 24 h (37° C., 170 rpm) under micro-aerophilic conditions (6% O2, 7% CO2, 7% H2, 80% N2). After this 24 h, disks are rinsed 3 times a day for 3 minutes (RT, 250 rpm), for 3 consecutive days, by transferring the lid containing the disks to a new 24-well plate containing 2 mL/well of the appropriate substrate solution. As a negative control, PBS (pH 5.7) without substrate supplementation is used. After each rinsing step, disks are shortly dip-rinsed in a new 24-well plate containing fresh modified BHI medium (2 mL/well) to remove remaining substrate traces. Subsequently, the lid is transferred to another 24-well plate containing fresh modified BHI medium (2 mL/well), followed by incubation (micro-aerophilic, 37° C., 170 rpm) until the next rinsing step.
# (§2) NADM, N-acetyl-D-glucosamine (“NADG”) and D-(+)-mannose are selected to determine their effects on multi-species biofilm composition. […] decrease in absolute numbers in at least four of the pathogenic bacterial species tested in the assay, compared to the control, the results of which are described in Table 1 below. Absolute abundances of bacterial species are shown as mean±SD (n=3) logarithmic values of the genome equivalents per millilitre (log(Geq/mL)).
# P. intermedia = test: Multi-species biofilm composition: absolute abundance of P. intermedia; settings: mean±SD n=3
# Experimental: as §1
# (§3) NADM, N-acetyl-D-glucosamine (“NADG”) and D-(+)-mannose are selected to determine their effects on multi-species biofilm composition. Repeated rinsing of the biofilms with the substrates at a concentration of 1M results in a significant decrease in absolute numbers in at least four of the pathogenic bacterial species tested in the assay, compared to the control, the results of which are described in Table 1 below. Absolute abundances of bacterial species are shown as mean±SD (n=3) logarithmic values of the genome equivalents per millilitre (log(Geq/mL)).
# A. viscosus = test: Multi-species biofilm composition: absolute abundance of A. viscosus; settings: mean±SD n=3
# Experimental: as §1, §2
# S. mitis = test: Multi-species biofilm composition: absolute abundance of S. mitis; settings: mean±SD n=3
# Experimental: as §1, §2
# S. salivarius = test: Multi-species biofilm composition: absolute abundance of S. salivarius; settings: mean±SD n=3
# Experimental: as §1, §3
# S. sanguinis = test: Multi-species biofilm composition: absolute abundance of S. sanguinis; settings: mean±SD n=3
# Experimental: as §1, §2
# multi-species biofilm = test: Relative multi-species biofilm composition (groups of bacterial species); settings: for Relative abundance Beneficials/Commensals / Relative abundance Cariogenic Pathogens / Relative abundance Periodontal Pathogens / Relative abundance Beneficial or commensals: mean±SD n=3
# Experimental: as §1, §2
# Relative abundances of the different groups (beneficial/commensals, periodontal pathogens, cariogenic pathogens) of bacterial species are shown as mean±SD (n=3) percentage of the genome equivalents per millilitre (% (Geq/mL)). […] NADM: N-acetyl-D-mannosamine; NADG: N-acetyl-D-glucosamine.
# multi-species biofilms = test: Multi-species biofilm organic acid balances (supernatant); settings: >0 production, <0 consumption, mean±SD n=3
# Experimental: as §1
# To examine the effect of NADM and the influence of the orientation and absence/presence of the N-acetyl group on organic acid production and consumption, supernatant samples from substrate-treated or untreated multi-species biofilms are analysed. […] When comparing relevant significant differences between substrate conditions, an increase in acetate production is observed for NADM compared to D-(+)-mannose (3084±174 vs. 1934±56 mg/L).
# [1] = tested on: P. gingivalis virulence genes; test: Multi-species biofilm virulence gene expression, SYBR RT-qPCR: P. gingivalis; settings: relative to control, 2^-ΔΔCt, geometric mean n=3
# Experimental: as §1
# (§4) The expression of 33 virulence genes from 4 periodontal pathogens is analysed to evaluate the relative virulence of the substrate-treated biofilms. For all three substrates, virulence gene expression is determined relatively to the control, and these values are also compared between substrates when this is relevant (Tables 5a-5d).
# [2] = tested on: F. nucleatum virulence genes; test: Multi-species biofilm virulence gene expression, SYBR RT-qPCR: F. nucleatum; settings: for Fold Change in virulence gene expression: ABC transp. perm. / Fold Change in virulence gene expression: EF-G / Fold Change in virulence gene expression: but.-coA transf. / Fold Change in virulence gene expression: hemin receptor / Fold Change in virulence gene expression: hemolysin / Fold Change in virulence gene expression: ompA / Fold Change in virulence gene expression: transposase: relative to control (=1), 2^-ΔΔCt, geometric mean n=3
# Experimental: as §1, §4
# [3] = tested on: P. intermedia virulence genes; test: Multi-species biofilm virulence gene expression, SYBR RT-qPCR: P. intermedia; settings: for Fold Change in virulence gene expression: DnaJ / Fold Change in virulence gene expression: DnaK / Fold Change in virulence gene expression: ECF / Fold Change in virulence gene expression: GroES / Fold Change in virulence gene expression: HtpG / Fold Change in virulence gene expression: KpsD / Fold Change in virulence gene expression: adpc / Fold Change in virulence gene expression: clpB / Fold Change in virulence gene expression: inpA / Fold Change in virulence gene expression: phg: relative to control (=1), 2^-ΔΔCt, geometric mean n=3
# Experimental: as §1, §4
# [4] = substrate 1%(w/v) in PBS, listed as D-(+)-mannose
# [5] = substrate 1 M in PBS, listed as D-(+)-mannose
# [6] = substrate 1 M, listed as D-(+)-mannose
structure (smiles),measurement,setting,value
"O=C[C@@H](O)[C@@H](O)[C@H](O)[C@H](O)CO [D-mannose, D-(+)-mannose]",Decrease in F. nucleatum vs control,F. nucleatum; substrate 1%(w/v),1.1 log(Geq/mL)
same,Absolute abundance Fn (F. nucleatum),F. nucleatum; substrate 1%(w/v) in PBS,8.66 ± 0.29 log(Geq/mL)
same,Absolute abundance Fn (F. nucleatum),F. nucleatum; substrate 1 M in PBS,6.59 ± 0.36 log(Geq/mL)
same,Absolute abundance Pi (P. intermedia),P. intermedia; substrate 1%(w/v) in PBS,8.06 ± 0.19 log(Geq/mL)
same,Absolute abundance Pi (P. intermedia),P. intermedia; substrate 1 M in PBS,7.80 ± 0.57 log(Geq/mL)
same,Absolute abundance Av (A. viscosus),A. viscosus; substrate 1%(w/v) in PBS,8.00 ± 0.17 log(Geq/mL)
same,Absolute abundance Av (A. viscosus),A. viscosus; substrate 1 M in PBS,6.40 ± 0.48 log(Geq/mL)
same,Absolute abundance S. mitis,S. mitis; substrate 1%(w/v) in PBS,3.00 ± 0.49 log(Geq/mL)
same,Absolute abundance S. mitis,S. mitis; substrate 1 M in PBS,<LOD
same,Absolute abundance S. sal. (S. salivarius),S. salivarius; substrate 1%(w/v) in PBS,2.89 ± 0.35 log(Geq/mL)
same,Absolute abundance S. sal. (S. salivarius),S. salivarius; substrate 1 M in PBS,3.63 ± 0.90 log(Geq/mL)
same,Absolute abundance S. sang. (S. sanguinis),S. sanguinis; substrate 1%(w/v) in PBS,8.19 ± 0.11 log(Geq/mL)
same,Absolute abundance S. sang. (S. sanguinis),S. sanguinis; substrate 1 M in PBS,7.39 ± 0.89 log(Geq/mL)
same,Relative abundance Beneficials/Commensals,multi-species biofilm; substrate 1%(w/v) in PBS,84.18 ± 2.04 % (Geq/mL)
same,Relative abundance Cariogenic Pathogens,multi-species biofilm; substrate 1%(w/v) in PBS,0.21 ± 0.04 % (Geq/mL)
same,Relative abundance Periodontal Pathogens,multi-species biofilm; substrate 1%(w/v) in PBS,15.61 ± 2.00 % (Geq/mL)
same,Relative abundance Beneficials/Commensals,multi-species biofilm; [4],84.18±2.04 % (Geq/mL)
same,Relative abundance Periodontal Pathogens,multi-species biofilm; [4],15.61±2.00 % (Geq/mL)
same,Relative abundance Beneficial or commensals,multi-species biofilm; substrate 1 M in PBS,96.83 ± 0.62 % (Geq/mL)
same,Relative abundance Cariogenic Pathogens,multi-species biofilm; substrate 1 M in PBS,2.40 ± 0.85 % (Geq/mL)
same,Relative abundance Periodontal Pathogens,multi-species biofilm; substrate 1 M in PBS,"0.77 ± 0.82 *^, #1 % (Geq/mL)"
same,Relative abundance Beneficial or commensals,multi-species biofilm; [5],96.83±0.62 % (Geq/mL)
same,Relative abundance Periodontal Pathogens,multi-species biofilm; [5],0.77±0.82 % (Geq/mL)
same,"Reduction of A. actinomycetemcomitans, F. nucleatum, P. gingivalis, A. naeslundii and A. viscosus numbers vs control","multi-species biofilm; substrate 1 M, range over the species",−1.2 to −3.7 log(Geq/mL)
same,acetate level in biofilm supernatant,multi-species biofilms; substrate 1%(w/v),352 ± 24 mg/L
same,butyrate level in biofilm supernatant,multi-species biofilms; substrate 1%(w/v),1985 ± 37 mg/L
same,formate level in biofilm supernatant,multi-species biofilms; substrate 1%(w/v),3717 ± 114 mg/L
same,lactate level in biofilm supernatant,multi-species biofilms; substrate 1%(w/v),125 ± 0 mg/L
same,propionate level in biofilm supernatant,multi-species biofilms; substrate 1%(w/v),1962 ± 28 mg/L
same,acetate level in biofilm supernatant,multi-species biofilms; substrate 1 M,"1934 ± 56*^, #1 mg/L"
same,butyrate level in biofilm supernatant,multi-species biofilms; substrate 1 M,"86 ± 15*^, #1, 2 mg/L"
same,formate level in biofilm supernatant,multi-species biofilms; substrate 1 M,398 ± 12 mg/L
same,lactate level in biofilm supernatant,multi-species biofilms; substrate 1 M,125 ± 0 mg/L
same,propionate level in biofilm supernatant,multi-species biofilms; substrate 1 M,2821 ± 127 mg/L
same,acetate level in biofilm supernatant,multi-species biofilms; [6],1934 ± 56 mg/L
same,butyrate level in biofilm supernatant,multi-species biofilms; [6],85 ± 15 mg/L
same,propionate level in biofilm supernatant,multi-species biofilms; [6],2821 ± 127 mg/L
same,Fold Change in virulence gene expression: fimA,[1]; substrate 1%,2.50 fold
same,Fold Change in virulence gene expression: kgp,[1]; substrate 1%,3.07 fold
same,Fold Change in virulence gene expression: partC,[1]; substrate 1%,0.60 fold
same,Fold Change in virulence gene expression: rgpA,[1]; substrate 1%,1.85 fold
same,Fold Change in virulence gene expression: fimA,[1]; substrate 1M,1.17 fold
same,Fold Change in virulence gene expression: kgp,[1]; substrate 1M,0.44 fold
same,Fold Change in virulence gene expression: partC,[1]; substrate 1M,0.09 fold
same,Fold Change in virulence gene expression: rgpA,[1]; substrate 1M,0.18 fold
same,Fold Change in virulence gene expression: ABC transp. perm.,[2]; substrate 1%,0.73 fold
same,Fold Change in virulence gene expression: EF-G,[2]; substrate 1%,0.13 fold
same,Fold Change in virulence gene expression: but.-coA transf.,[2]; substrate 1%,0.37 fold
same,Fold Change in virulence gene expression: hemin receptor,[2]; substrate 1%,0.26 fold
same,Fold Change in virulence gene expression: hemolysin,[2]; substrate 1%,0.89 fold
same,Fold Change in virulence gene expression: ompA,[2]; substrate 1%,1.17 fold
same,Fold Change in virulence gene expression: transposase,[2]; substrate 1%,1.38 fold
same,"F. nucleatum butyrate acetoacetate CoA transferase gene, upregulation",[2]; substrate 1 M,2.3 fold
same,"F. nucleatum hemolysin gene, upregulation",[2]; substrate 1 M,2.1 fold
same,Fold Change in virulence gene expression: ABC transp. perm.,[2]; substrate 1M,2.65 fold
same,Fold Change in virulence gene expression: EF-G,[2]; substrate 1M,1.36 fold
same,Fold Change in virulence gene expression: but.-coA transf.,[2]; substrate 1M,2.27 fold
same,Fold Change in virulence gene expression: hemin receptor,[2]; substrate 1M,3.82 fold
same,Fold Change in virulence gene expression: hemolysin,[2]; substrate 1M,2.14 fold
same,Fold Change in virulence gene expression: ompA,[2]; substrate 1M,1.36 fold
same,Fold Change in virulence gene expression: transposase,[2]; substrate 1M,1.46 fold
same,"Relative P. intermedia virulence gene expression, downregulation","[3]; substrate 1%(w/v), D-(+)-mannose for 3 genes",2- to 2.7 fold
same,Fold Change in virulence gene expression: DnaJ,[3]; substrate 1%,0.37 fold
same,Fold Change in virulence gene expression: DnaK,[3]; substrate 1%,0.63 fold
same,Fold Change in virulence gene expression: ECF,[3]; substrate 1%,0.6 fold
same,Fold Change in virulence gene expression: GroES,[3]; substrate 1%,0.51 fold
same,Fold Change in virulence gene expression: HtpG,[3]; substrate 1%,0.46 fold
same,Fold Change in virulence gene expression: KpsD,[3]; substrate 1%,0.96 fold
same,Fold Change in virulence gene expression: adpc,[3]; substrate 1%,0.54 fold
same,Fold Change in virulence gene expression: clpB,[3]; substrate 1%,1.00 fold
same,Fold Change in virulence gene expression: inpA,[3]; substrate 1%,0.37 fold
same,Fold Change in virulence gene expression: phg,[3]; substrate 1%,0.50 fold
same,Fold Change in virulence gene expression: DnaJ,[3]; substrate 1M,0.03 fold
same,Fold Change in virulence gene expression: DnaK,[3]; substrate 1M,0.44 fold
same,Fold Change in virulence gene expression: ECF,[3]; substrate 1M,1.47 fold
same,Fold Change in virulence gene expression: GroES,[3]; substrate 1M,0.37 fold
same,Fold Change in virulence gene expression: HtpG,[3]; substrate 1M,0.29 fold
same,Fold Change in virulence gene expression: KpsD,[3]; substrate 1M,0.42 fold
same,Fold Change in virulence gene expression: adpc,[3]; substrate 1M,0.27 fold
same,Fold Change in virulence gene expression: clpB,[3]; substrate 1M,0.14 fold
same,Fold Change in virulence gene expression: inpA,[3]; substrate 1M,0.47 fold
same,Fold Change in virulence gene expression: phg,[3]; substrate 1M,0.10 fold
